This is an account of results in US11406683B2, “Compounds and therapeutics uses thereof” (Centauri Therapeutics Limited (GB/GB), priority 2017, dated 2022).

Bridge positions count the residues as written; N and C are the ends. Square brackets hold non-standard residues; d marks the D form. Side chains are listed from the residue outwards. Peptide text beside a SMILES is read from it. * marks the point of attachment. X1 = C[C@@H]1OC(OCCCC(=O)NCCNC(=O)COc2cc(OCC(=O)NCCNC(=O)CCCOC3O[C@@H](C)C(O)C(O)[C@@H]3O)cc(-c3cc(OCC(=O)NCCNC(=O)CCCOC4O[C@@H](C)C(O)C(O)[C@@H]4O)cc(C(=O)*)c3)c2)[C@@H](O)C(O)C1O; X3 = C[C@@H]1OC(OCCCC(=O)NCCNC(=O)COc2ccc(-c3cccc(C(=O)*)c3)cc2)[C@@H](O)C(O)C1O; Gly(octyl) = CCCCCCCC[C@H](N)C(=O)O; Nonanoyl = CCCCCCCCC(=O)*; X2 = CC[C@H](C)CCCCC(=O)*; Dab = NCC[C@H](N)C(=O)O; Ahx = NCCCCCC(=O)O

Experiment [1] has as its system Pseudomonas Aeruginosa PA01 (ATCC 15692). In words: Flow cytometric antibody recruitment assay using an anti-Rhamnose antibody. The class given is cell-based. The settings on record: 40 μM substance; MFI (PE) over vehicle control; human anti-Rhamnose IgG polyclonal antibody 42 μg/mL; binding to bacterial surface. How it is done: Flow Cytometric Antibody Recruitment Assay Using an Anti-Rhamnose Antibody
A secondary fluorescently labelled anti-IgG antibody was used to detect the anti-Rhamnose antibody binding.
The assays were carried out in polystyrene 96-well U bottom plates (Costar) blocked with 200 μl of Casein blocking buffer for 1 hour at room temperature (Fisher 37528). Pseudomonas Aeruginosa PA01 (ATCC 15692) was grown in LB broth, Miller (Fisher BP1426-500) to late exponential phase. Subsequently, the bacteria were washed once with Hank's Balanced Salt Solution with calcium and magnesium (HBSS+/+) and then resuspended in HBSS+/+ at a bacterial density of 2×10^9 colony forming units (CFU)/mL. […] The bacteria were then washed three times with 200 μL HBSS+/+, prior to adding 50 μL of the human anti Rhamnose IgG polyclonal antibody at a final concentration of 42 μg/mL in HBSS+/+. The samples were incubated for 1 hour at room temperature shaking at 450 rpm. The bacteria were washed three times as above, prior to adding 100 μL of a PE-labeled anti-human IgG Fc secondary antibody (Biolegend 409304) at 10 μg/mL in HBSS+/+ and incubating at room temperature for 1 hour at 450 rpm. After three final washes with 200 μL HBSS+/+, the bacteria were resuspended in 200 μL HBSS+/+ and evaluated for anti-Rhamnose antibody binding on a Cytoflex flow cytometer (Beckman Coulter). 50,000 counts of bacterial particles were sampled and the median fluorescent shift was recorded in the PE-A channel. Data from all samples were analysed using Kaluza software (Beckman Coulter).
The fold shift over background was calculated by dividing the Median Fluorescent Intensity (MFI) obtained in the presence of 40 μM of the Example compounds by the MFI value obtained in the vehicle controls, i.e., the absence of Examples. The higher the fold shift over background, the more anti-Rhamnose was bound to the bacterial surface. The shift in fluorescence intensity (PE) occurs due to the binding event at each end of the molecule.
On the technique in general: Flow cytometry measures light scatter and fluorescence of single cells or particles in a stream.

The test system of experiment [2] is E. coli K1:O18ac:H7 (ATCC 700973). In words: Flow cytometric complement deposition assay with human serum. The settings on record: MFI (APC) over vehicle, 25% pooled human serum, 37° C., 20 min; for C3b deposition (5 μM, Average fold change): 5 μM compound, C3b/iC3b on bacterial surface. It counts as cell-based. How it is done: Flow Cytometric Complement Deposition Assay with Human Serum
The assays were carried out in polystyrene 96-well U bottom plates (Costar). E. coli K1:O18ac:H7 (American Type Culture Collection, ATCC 700973) was grown in LB broth, Miller (Fisher BP1426-500) to late exponential phase. Subsequently, the bacteria were washed in Hank's Balanced Salt Solution with calcium and magnesium (HBSS+/+) and then resuspended in assay buffer, i.e., PBS with 1% bovine serum albumin (BSA, Sigma A2153) at a concentration of 2×10^9 CFU/mL. […] Subsequently, 150 μL ice-cold HBSS+/+ was added, the bacteria were pelleted and then washed once with 200 μL HBSS+/+, prior to adding 100 μL of pooled human serum (Innovate Research IPLA-CSER) as anti-Rhamnose antibody and complement source in PBS, 1% BSA to a final serum concentration of 25%. Bacteria were incubated at 37° C. for 20 min to allow for anti-Rhamnose binding to the compounds and complement deposition. 100 μL ice-cold HBSS+/+ was added to each well to stop the reaction. The bacteria were pelleted by centrifugation at 4° C. and the supernatants discarded. The bacteria were then washed two times with 200 μL refrigerated HBSS+/+, prior to adding 100 μL of APC-labelled anti-human C3b/iC3b antibody (Biolegend 846106; clone 3E7/C3b) at 1:25 dilution in PBS, 1% BSA and incubated at 4° C. for 45 min. After three final washes with 200 μL HBSS+/+, the bacteria were resuspended in HBSS+/+ and their fluorescence profile as an indicator for complement deposition evaluated on a Cytoflex flow cytometer (Beckman Coulter). The median fluorescent intensity (MFI) was recorded in the APC channels. Data from all samples were analysed using Kaluza software (Beckman Coulter).
The fold shift over background was calculated by dividing the MFI obtained in the presence of the Examples (5 μM) by the MFI obtained in the absence of Examples, i.e., in the presence of vehicle. The shift in fluorescence intensity (APC) occurred due to detection of covalently bound complement components C3b/iC3b to the surface of the bacteria.

As to `CCCCCCCCC(=O)N[C@@H](CCNC(=O)CCCCCNC(=O)CCCCCNC(=O)c1cccc(-c2ccc(OCC(=O)NCCNC(=O)CCCOC3O[C@@H](C)C(O)C(O)[C@@H]3O)cc2)c1)C(=O)N[C@H](C(=O)N[C@@H](CCN)C(=O)N[C@H]1CCNC(=O)[C@H]([C@@H](C)O)NC(=O)[C@H](CCN)NC(=O)[C@H](CCN)NC(=O)[C@H](CC(C)C)NC(=O)[C@@H](Cc2ccccc2)NC(=O)[C@H](CCN)NC1=O)[C@@H](C)O` (stereo partly drawn) [Example 5] (Nonanoyl-[Dab]([Ahx-Ahx-X3])T[Dab][Dab][Dab][dF]L[Dab][Dab]T; lactam 4-C), the “IgG Recruitment (40 μM, Average fold change)” value in experiment [1] came to 8.45 fold change. In experiment [2], the “C3b deposition (5 μM, Average fold change)” value is 20.5 fold change.
As to `CC[C@H](C)CCCCC(=O)N[C@@H](CCN)C(=O)N[C@H](C(=O)N[C@@H](CCN)C(=O)N[C@H]1CCNC(=O)[C@H]([C@@H](C)O)NC(=O)[C@H](CCN)NC(=O)[C@H](CCN)NC(=O)[C@H](CC(C)C)NC(=O)[C@@H](Cc2ccccc2)NC(=O)[C@H](CCN)NC1=O)[C@@H](C)O` [Polymyxin B, reference compound] (X2-[Dab]T[Dab][Dab][Dab][dF]L[Dab][Dab]T; lactam 4-C), the “IgG Recruitment (40 μM, Average fold change)” value in experiment [1] is 1.58 fold change. In addition, the “C3b deposition (Average fold change)” value in experiment [2] (20 μM PmxB) was 24.535 fold change.
With `CCCCCCCC[C@H](NC(=O)CCCCCNC(=O)CCCCCNC(=O)c1cccc(-c2ccc(OCC(=O)NCCNC(=O)CCCOC3O[C@@H](C)C(O)C(O)[C@@H]3O)cc2)c1)C(=O)N[C@@H](CCN)C(=O)N[C@H](C(=O)N[C@@H](CCN)C(=O)N[C@H]1CCNC(=O)[C@H]([C@@H](C)O)NC(=O)[C@H](CCN)NC(=O)[C@H](CCN)NC(=O)[C@H](CC(C)C)NC(=O)[C@@H](Cc2ccccc2)NC(=O)[C@H](CCN)NC1=O)[C@@H](C)O` (some centres unmarked) [Example 1] ({X3-Ahx-Ahx}-[Gly(octyl)][Dab]T[Dab][Dab][Dab][dF]L[Dab][Dab]T; lactam 5-C), in experiment [1], the “IgG Recruitment (40 μM, Average fold change)” value amounted to 77.7 fold change. For the same compound, the “C3b deposition (5 μM, Average fold change)” value in experiment [2] is on record as 109.8 fold change.
As to `CCCCCCCC[C@H](NC(=O)CCCCCNC(=O)CCCCCNC(=O)c1cc(OCC(=O)NCCNC(=O)CCCOC2O[C@@H](C)C(O)C(O)[C@@H]2O)cc(-c2cc(OCC(=O)NCCNC(=O)CCCOC3O[C@@H](C)C(O)C(O)[C@@H]3O)cc(OCC(=O)NCCNC(=O)CCCOC3O[C@@H](C)C(O)C(O)[C@@H]3O)c2)c1)C(=O)N[C@@H](CCN)C(=O)N[C@H](C(=O)N[C@@H](CCN)C(=O)N[C@H]1CCNC(=O)[C@H]([C@@H](C)O)NC(=O)[C@H](CCN)NC(=O)[C@H](CCN)NC(=O)[C@H](CC(C)C)NC(=O)[C@@H](Cc2ccccc2)NC(=O)[C@H](CCN)NC1=O)[C@@H](C)O` (some centres unmarked) [Example 2] ({X1-Ahx-Ahx}-[Gly(octyl)][Dab]T[Dab][Dab][Dab][dF]L[Dab][Dab]T; lactam 5-C), the “IgG Recruitment (40 μM, Average fold change)” value in experiment [1] was 3.4 fold change. In addition, the “C3b deposition (5 μM, Average fold change)” value in experiment [2] is recorded as 148.1 fold change.
